# Assay results from patent US20250145665A1, “MACROCYCLIC PEPTIDES USEFUL AS MODULATORS OF TNF ALPHA” (Bristol-Myers Squibb Company, priority 2023, published 2025).
# Starred links: 1 amine or outer side, 2 acyl side, 3 side chain; linkers in the order of their positions; H or OH if unused. Positions of bridges follow the written chain, without caps; N, C: chain ends. Non-standard residues stand in square brackets, D forms with d. Residues, ends and D or L forms follow the SMILES beside them. ξ: configuration not given here. *: point of attachment. Bip(4'-NHCO-C6H4-3-CH2COOH) = N[C@@H](Cc1ccc(-c2ccc(NC(=O)c3cccc(CC(=O)O)c3)cc2)cc1)C(=O)O; Bip(4'-NH) = O=C([C@H](Cc1ccc(-c2ccc(N[*:3])cc2)cc1)N[*:1])[*:2]; Bip(4'-CONHMe) = CNC(=O)c1ccc(-c2ccc(C[C@H](N)C(=O)O)cc2)cc1; Bip(4'-COOH) = N[C@@H](Cc1ccc(-c2ccc(C(=O)O)cc2)cc1)C(=O)O; Bip(4'-NHAc) = CC(=O)Nc1ccc(-c2ccc(C[C@H](N)C(=O)O)cc2)cc1; Ala(morpholin-4-yl) = N[C@@H](CN1CCOCC1)C(=O)O; Benzoyl(3-OCH2COOH) = O=C(O)COc1cccc(C(=O)*)c1; Phe(3-CONH2) = NC(=O)c1cccc(C[C@H](N)C(=O)O)c1; Bip = N[C@@H](Cc1ccc(-c2ccccc2)cc1)C(=O)O; Hyp = O=C(O)[C@@H]1C[C@@H](O)CN1; 2Pal = N[C@@H](Cc1ccccn1)C(=O)O; Cha = N[C@@H](CC1CCCCC1)C(=O)O; Chg = N[C@H](C(=O)O)C1CCCCC1; Tle = CC(C)(C)[C@H](N)C(=O)O; ξIle = CC[C@H](C)C(N)C(=O)O; Sar = CNCC(=O)O
# Target: TNFα (Homo sapiens, UniProt P01375)
# Experiment: TNF-Induced HEK-Blue Assay
# Assay type: cell-based
# Conditions: HEK-Blue-CD40L cells, NF-kB-driven secreted alkaline phosphatase reporter; TNFα 0.5 ng/ml; 18 h; read-out: TNF induced HEK-Blue assay IC50 value
# Sequence of TNFα (P01375 77-233 limits assumed): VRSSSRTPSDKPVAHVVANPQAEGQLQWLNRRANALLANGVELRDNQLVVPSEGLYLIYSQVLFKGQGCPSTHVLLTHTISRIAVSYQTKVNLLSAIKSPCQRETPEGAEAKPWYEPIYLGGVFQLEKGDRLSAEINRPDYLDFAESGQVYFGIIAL
row,IC50,SMILES
1,200 to 2000 nM,CC(C)C[C@@H]1NC(=O)[C@H](Cc2ccc(O)cc2)NC(=O)[C@H](C(C)C)NC(=O)[C@@H]2C[C@@H](O)CN2C(=O)[C@H](C(C)C)NC(=O)[C@@H](CCCNC(=N)N)NC(=O)[C@H](CC(=O)O)NC(=O)[C@@H]2CCCN2C(=O)CN(C)C(=O)[C@H](Cc2ccc(-c3ccccc3)cc2)NC(=O)[C@H](Cc2ccc(-c3ccccc3)cc2)NC(=O)[C@H](CN2CCOCC2)NC(=O)CSC[C@@H](C(=O)NCC(N)=O)NC1=O [Example 80] ({CH2CO}-[Ala(morpholin-4-yl)][Bip][Bip][Sar]PD[dR]V[Hyp]VYLCG-NH2; thioether N-13)
2,< 50 nM,CC[C@H](C)[C@@H]1NC(=O)[C@@H](CCCNC(=N)N)NC(=O)[C@H](CC(=O)O)NC(=O)[C@H](Cc2cnc[nH]2)NC(=O)CN(C)C(=O)[C@H](Cc2ccc(-c3ccc(NC(=O)c4cccc(CC(=O)O)c4)cc3)cc2)NC(=O)[C@H](Cc2ccc(-c3ccc(C(=O)NC)cc3)cc2)NC(=O)[C@H](CC2CCCCC2)NC(=O)CSC[C@@H](C(=O)NCC(N)=O)NC(=O)[C@H](CC(C)C)NC(=O)[C@H](Cc2cnc[nH]2)NC(=O)[C@H](C(C)C)NC(=O)[C@@H]2CCCN2C1=O [Example 527] ({CH2CO}-[Cha][Bip(4'-CONHMe)][Bip(4'-NHCO-C6H4-3-CH2COOH)][Sar]HD[dR]IPVHLCG-NH2; thioether N-13)
3,50 to 200 nM,CC[C@H](C)[C@@H]1NC(=O)[C@@H]2CCCN2C(=O)[C@H]([C@@H](C)CC)NC(=O)[C@@H](CCCNC(=N)N)NC(=O)[C@H](CC(=O)O)NC(=O)[C@@H]2CCCN2C(=O)CN(C)C(=O)[C@H](Cc2ccc(-c3ccc(NC(C)=O)cc3)cc2)NC(=O)[C@H](Cc2ccc(-c3ccc(C(=O)O)cc3)cc2)NC(=O)[C@H](C(C)(C)C)NC(=O)CSC[C@@H](C(=O)NCC(N)=O)NC(=O)[C@H](CC(C)C)NC(=O)[C@H](Cc2ccc(O)cc2)NC1=O [Example 300] ({CH2CO}-[Tle][Bip(4'-COOH)][Bip(4'-NHAc)][Sar]PD[dR]IPIYLCG-NH2; thioether N-13)
4,< 50 nM,CC[C@H](C)[C@@H]1NC(=O)[C@@H](CCCNC(=N)N)NC(=O)[C@H](CC(=O)O)NC(=O)[C@H](Cc2cnc[nH]2)NC(=O)CN(C)C(=O)[C@H](Cc2ccc(-c3ccc(NC(=O)c4cccc(OCC(=O)O)c4)cc3)cc2)NC(=O)[C@H](Cc2ccc(-c3ccc(C(=O)O)cc3)cc2)NC(=O)[C@H](CC2CCCCC2)NC(=O)CSC[C@@H](C(=O)NCC(N)=O)NC(=O)[C@H](CC(C)C)NC(=O)[C@H](Cc2cccc(C(N)=O)c2)NC(=O)[C@H](C(C)C)NC(=O)[C@@H]2CCCN2C1=O [Example 586] ({CH2CO}-[Cha][Bip(4'-COOH)][Bip(4'-NH)](Benzoyl(3-OCH2COOH))[Sar]HD[dR]IPV[Phe(3-CONH2)]LCG-NH2; thioether N-13)
5,50 to 200 nM,CC(C)C[C@@H]1NC(=O)[C@H](CCCNC(=N)N)NC(=O)[C@H](C2CCCCC2)NC(=O)[C@@H]2CCCN2C(=O)[C@H](C(C)C)NC(=O)[C@@H](CCCNC(=N)N)NC(=O)[C@H](CC(=O)O)NC(=O)[C@H](Cc2ccccn2)NC(=O)CN(C)C(=O)[C@H](Cc2ccc(-c3ccccc3)cc2)NC(=O)[C@H](Cc2ccc(-c3ccccc3)cc2)NC(=O)[C@H](CN2CCOCC2)NC(=O)CSC[C@@H](C(=O)NCC(N)=O)NC1=O [Example 204] ({CH2CO}-[Ala(morpholin-4-yl)][Bip][Bip][Sar][2Pal]D[dR]VP[Chg]RLCG-NH2; thioether N-13)
6,200 to 2000 nM,CC[C@H](C)C1NC(=O)CSC[C@@H](C(=O)NCC(N)=O)NC(=O)[C@H](CC(C)C)NC(=O)[C@H](CCCNC(=N)N)NC(=O)[C@H](C(C)C)NC(=O)[C@@H]2CCCN2C(=O)[C@H](C(C)C)NC(=O)[C@H](CCCNC(=N)N)NC(=O)[C@H](CC(=O)O)NC(=O)[C@@H]2CCCN2C(=O)CN(C)C(=O)[C@H](Cc2ccc(-c3ccccc3)cc2)NC(=O)[C@H](Cc2ccc(-c3ccccc3)cc2)NC1=O (some centres unmarked) [Example 7] ({CH2CO}-[ξIle][Bip][Bip][Sar]PDRVPVRLCG-NH2; thioether N-13)
7,< 50 nM,CC(C)C[C@@H]1NC(=O)[C@H](CCCNC(=N)N)NC(=O)[C@H](C2CCCCC2)NC(=O)[C@@H]2CCCN2C(=O)[C@H](C(C)C)NC(=O)[C@@H](CCCNC(=N)N)NC(=O)[C@H](CC(=O)O)NC(=O)[C@@H]2CCCN2C(=O)CN(C)C(=O)[C@H](Cc2ccc(-c3ccccc3)cc2)NC(=O)[C@H](Cc2ccc(-c3ccccc3)cc2)NC(=O)[C@H](CN2CCOCC2)NC(=O)CSC[C@@H](C(=O)NCC(N)=O)NC1=O [Example 206] ({CH2CO}-[Ala(morpholin-4-yl)][Bip][Bip][Sar]PD[dR]VP[Chg]RLCG-NH2; thioether N-13)
8,200 to 2000 nM,CC(C)C[C@@H]1NC(=O)[C@H](Cc2ccc(O)cc2)NC(=O)[C@H](C(C)C)NC(=O)[C@@H]2CCCN2C(=O)[C@H](C(C)C)NC(=O)[C@H](CCCNC(=N)N)NC(=O)[C@H](CC(=O)O)NC(=O)[C@H](Cc2ccc(O)cc2)NC(=O)CN(C)C(=O)[C@H](Cc2ccc(-c3ccccc3)cc2)NC(=O)[C@H](Cc2ccc(-c3ccc(C(=O)O)cc3)cc2)NC(=O)[C@H](CN2CCOCC2)NC(=O)CSC[C@@H](C(=O)NCC(N)=O)NC1=O [Example 121] ({CH2CO}-[Ala(morpholin-4-yl)][Bip(4'-COOH)][Bip][Sar]YDRVPVYLCG-NH2; thioether N-13)
